The results in this text go back to patent US11993599B2, “Therapeutic compounds” (Genentech, Inc., priority 2021, dated 2024).

For one assay, the target named is BRM (Homo sapiens, UniProt P51531). The experiment in a line: Immunofluorescence assay for BRM degradation in SW1573 cells. As to conditions: 20 hours incubation; for DC50: immunofluorescence mean nuclear signal, read-out: BRM IF Degradation IC50; for BRM IF Degradation Sinf (%): normalized to a known degrader control. Details: treated overnight at 4° C. with either BRM primary antibody (Cell signaling Cat #11966) or BRG primary antibody; endogenous in cells; host or cells: SW1573. Type of assay: cell-based. The procedure, abridged: (§1)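 Cells seeded one day before dosing, exposed to compounds for 20 hours, then fixed, permeabilized, blocked and stained overnight at 4 °C with anti-BRM or anti-BRG1 antibody. Nuclear fluorescence intensity per cell, normalized to a degrader control, gave concentration-response curves fitted with a floating maximum.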

The next assay concerns the target T1, BRG1 (Homo sapiens, UniProt P51532).
T1 construct: either BRM primary antibody (Cell signaling Cat #11966) or BRG primary antibody (Abcam, ab 110641); endogenous in cells; host or cells: SW1573
The assay can be described thus: Immunofluorescence assay for BRG1 degradation in SW1573 cells. Format: cell-based. As to conditions: 20 hours incubation; for DC50: immunofluorescence mean nuclear signal, read-out: BRG1 IF Degradation IC50; for Dmax: SW1573, 20 h, normalized to a known degrader control, read-out: BRG1 IF Degradation Sinf (%). The method, boiled down:
as §1

BRM, sequence (P51531 whole entry): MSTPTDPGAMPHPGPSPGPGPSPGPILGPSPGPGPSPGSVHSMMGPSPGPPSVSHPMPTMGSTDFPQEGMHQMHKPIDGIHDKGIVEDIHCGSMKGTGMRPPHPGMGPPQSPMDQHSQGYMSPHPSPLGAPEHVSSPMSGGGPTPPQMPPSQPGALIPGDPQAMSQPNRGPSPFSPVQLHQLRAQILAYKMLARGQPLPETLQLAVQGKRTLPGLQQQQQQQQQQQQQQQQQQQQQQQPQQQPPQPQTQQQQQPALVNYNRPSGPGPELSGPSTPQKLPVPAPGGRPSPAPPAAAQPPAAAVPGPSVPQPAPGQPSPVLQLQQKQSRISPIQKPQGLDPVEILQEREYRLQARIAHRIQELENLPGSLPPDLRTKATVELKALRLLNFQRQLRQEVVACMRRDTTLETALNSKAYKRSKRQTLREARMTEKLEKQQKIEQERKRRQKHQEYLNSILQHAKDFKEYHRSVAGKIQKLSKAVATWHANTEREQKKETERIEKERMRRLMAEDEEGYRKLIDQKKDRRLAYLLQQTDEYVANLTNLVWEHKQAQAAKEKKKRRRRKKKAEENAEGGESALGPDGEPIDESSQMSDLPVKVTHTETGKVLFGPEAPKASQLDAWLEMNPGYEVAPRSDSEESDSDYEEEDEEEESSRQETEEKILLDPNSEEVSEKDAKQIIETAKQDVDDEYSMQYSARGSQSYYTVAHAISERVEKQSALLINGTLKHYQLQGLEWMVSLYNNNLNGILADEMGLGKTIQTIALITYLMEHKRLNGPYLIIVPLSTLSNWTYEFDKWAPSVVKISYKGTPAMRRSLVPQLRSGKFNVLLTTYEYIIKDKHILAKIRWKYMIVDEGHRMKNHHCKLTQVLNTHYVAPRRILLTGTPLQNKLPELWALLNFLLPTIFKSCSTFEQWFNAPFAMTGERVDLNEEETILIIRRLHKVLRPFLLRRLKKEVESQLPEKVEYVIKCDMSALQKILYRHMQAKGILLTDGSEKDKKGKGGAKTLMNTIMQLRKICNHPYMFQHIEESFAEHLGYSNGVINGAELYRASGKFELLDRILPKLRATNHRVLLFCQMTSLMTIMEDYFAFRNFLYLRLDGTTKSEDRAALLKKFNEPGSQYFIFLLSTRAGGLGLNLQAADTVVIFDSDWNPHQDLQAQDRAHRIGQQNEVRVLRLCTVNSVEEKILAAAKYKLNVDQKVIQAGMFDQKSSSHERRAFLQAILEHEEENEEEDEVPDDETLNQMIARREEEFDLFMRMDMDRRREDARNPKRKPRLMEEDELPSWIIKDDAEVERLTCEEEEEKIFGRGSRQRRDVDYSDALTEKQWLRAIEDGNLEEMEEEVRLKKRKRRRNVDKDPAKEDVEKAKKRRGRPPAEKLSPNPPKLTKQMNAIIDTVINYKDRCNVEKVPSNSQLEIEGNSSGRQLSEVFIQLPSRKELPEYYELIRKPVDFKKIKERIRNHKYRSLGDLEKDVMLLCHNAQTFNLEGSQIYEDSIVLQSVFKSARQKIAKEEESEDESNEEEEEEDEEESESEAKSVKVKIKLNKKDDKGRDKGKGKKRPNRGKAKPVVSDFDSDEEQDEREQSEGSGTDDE
T1 sequence (P51532 whole entry): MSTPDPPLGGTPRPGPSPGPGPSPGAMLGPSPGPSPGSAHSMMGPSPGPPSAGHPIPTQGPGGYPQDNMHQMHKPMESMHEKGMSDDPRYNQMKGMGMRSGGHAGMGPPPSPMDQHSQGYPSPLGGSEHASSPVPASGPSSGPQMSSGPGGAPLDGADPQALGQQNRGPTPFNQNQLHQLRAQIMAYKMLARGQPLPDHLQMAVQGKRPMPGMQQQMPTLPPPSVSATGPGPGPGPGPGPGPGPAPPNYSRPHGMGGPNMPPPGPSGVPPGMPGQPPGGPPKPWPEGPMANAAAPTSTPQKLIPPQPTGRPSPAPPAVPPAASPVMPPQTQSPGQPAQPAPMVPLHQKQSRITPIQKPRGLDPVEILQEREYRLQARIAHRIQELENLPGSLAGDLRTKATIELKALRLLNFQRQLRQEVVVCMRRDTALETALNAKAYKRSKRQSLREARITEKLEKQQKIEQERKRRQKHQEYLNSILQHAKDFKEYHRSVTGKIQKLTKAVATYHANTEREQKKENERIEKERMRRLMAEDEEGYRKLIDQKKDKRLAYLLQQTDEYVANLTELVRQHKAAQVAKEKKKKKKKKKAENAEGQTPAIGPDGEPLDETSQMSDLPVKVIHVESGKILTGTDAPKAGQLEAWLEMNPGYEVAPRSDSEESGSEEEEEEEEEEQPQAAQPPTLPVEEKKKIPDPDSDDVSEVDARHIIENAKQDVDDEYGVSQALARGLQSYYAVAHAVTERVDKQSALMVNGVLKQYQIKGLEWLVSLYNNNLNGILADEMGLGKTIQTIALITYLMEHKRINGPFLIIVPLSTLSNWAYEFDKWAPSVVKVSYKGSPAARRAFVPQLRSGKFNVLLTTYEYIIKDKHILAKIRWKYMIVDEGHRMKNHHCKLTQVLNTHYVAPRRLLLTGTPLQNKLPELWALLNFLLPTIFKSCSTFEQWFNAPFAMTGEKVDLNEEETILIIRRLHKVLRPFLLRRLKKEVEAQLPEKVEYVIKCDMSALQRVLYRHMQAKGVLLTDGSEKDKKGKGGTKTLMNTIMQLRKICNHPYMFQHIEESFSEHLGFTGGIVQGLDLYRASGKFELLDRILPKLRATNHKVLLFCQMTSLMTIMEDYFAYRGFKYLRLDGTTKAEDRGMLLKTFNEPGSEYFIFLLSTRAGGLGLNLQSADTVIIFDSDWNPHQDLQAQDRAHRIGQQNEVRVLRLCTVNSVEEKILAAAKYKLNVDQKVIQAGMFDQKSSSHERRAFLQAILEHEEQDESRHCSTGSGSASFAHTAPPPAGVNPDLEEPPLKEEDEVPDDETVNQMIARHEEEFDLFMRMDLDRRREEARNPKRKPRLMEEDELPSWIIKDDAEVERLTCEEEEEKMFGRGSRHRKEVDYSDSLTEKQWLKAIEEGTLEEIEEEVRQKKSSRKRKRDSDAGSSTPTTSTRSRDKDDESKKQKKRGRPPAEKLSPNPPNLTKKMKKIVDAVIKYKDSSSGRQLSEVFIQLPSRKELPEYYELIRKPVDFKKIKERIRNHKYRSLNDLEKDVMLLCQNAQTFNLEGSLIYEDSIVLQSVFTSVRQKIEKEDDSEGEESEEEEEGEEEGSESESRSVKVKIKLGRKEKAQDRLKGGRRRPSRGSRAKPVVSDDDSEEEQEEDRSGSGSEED

Regarding `Nc1nnc(-c2ccccc2O)cc1N1CC2CCC(C1)N2c1ccnc(C#CCN2CCc3nccn3CC2)c1` [Compound 203, 2-[6-amino-5-[8-[2-[3-(5,6,8,9-tetrahydroimidazo[l,2-d][1,4]diazepin-7-yl)prop-1-ynyl]-4-pyridyl]-3,8-diazabicyclo[3.2.1]octan-3-yl]pyridazin-3-yl]phenol], on BRM, the DC50 was 10 to 100 nM and the “BRM IF Degradation Sinf (%)” value was “E (E indicates −30%-−70%)”. Also, at BRG1, the DC50 was above 100 nM.
Take `CC1(C)CCCN(CC#Cc2cc(N3C4CCC3CN(c3cc(-c5ccccc5O)nnc3N)C4)ccn2)CC1` [Compound 205, 2-[6-amino-5-[8-[2-[3-(4,4-dimethylazepan-1-yl)prop-1-ynyl]-4-pyridyl]-3,8-diazabicyclo[3.2.1]octan-3-yl]pyridazin-3-yl]phenol]: on BRM, the DC50 was below 10 nM and the “BRM IF Degradation Sinf (%)” value is “F (F indicates −71%-−120%)”. Further, at BRG1, the DC50 is below 10 nM and the Dmax is 30 to 70%.
In the case of `N#CCC1CCN(CC#Cc2cc(N3C4CCC3CN(c3cc(-c5ccccc5O)nnc3N)C4)ccn2)CCC1(F)F` (stereo not shown) [Compound 206, 2-[1-[3-[4-[3-[3-amino-6-(2-hydroxyphenyl)pyridazin-4-yl]-3,8-diazabicyclo[3.2.1]octan-8-yl]-2-pyridyl]prop-2-ynyl]-5,5-difluoro-azepan-4-yl]acetonitrile], the DC50 was 10 to 100 nM at BRM and above 100 nM on BRG1. The “BRM IF Degradation Sinf (%)” value on BRM is on record as “E (E indicates −30%-−70%)”.
With `COCC1(O)CCCN(CC#Cc2cc(N3C4CCC3CN(c3cc(-c5ccccc5O)nnc3N)C4)ccn2)CC1` (stereo not shown) [Compound 207, 1-[3-[4-[3-[3-amino-6-(2-hydroxyphenyl)pyridazin-4-yl]-3,8-diazabicyclo[3.2.1]octan-8-yl]-2-pyridyl]prop-2-ynyl]-4-(methoxymethyl)azepan-4-ol], on BRM, the DC50 is 10 to 100 nM and the “BRM IF Degradation Sinf (%)” value is recorded as “E (E indicates −30%-−70%)”. In addition, on BRG1, the DC50 was above 100 nM and the Dmax is 71 to 120%.
The corresponding values for `Nc1nnc(-c2ccccc2O)cc1N1CC2CCC(C1)N2c1ccnc(C#CCN2CCCC3(CC2)CC3(F)F)c1` (stereo not shown) [Compound 208, 2-[6-amino-5-[8-[2-[3-(2,2-difluoro-7-azaspiro[2.6]nonan-7-yl)prop-1-ynyl]-4-pyridyl]-3,8-diazabicyclo[3.2.1]octan-3-yl]pyridazin-3-yl]phenol] are below 10 nM, “E (E indicates −30%-−70%)”, below 10 nM and 30 to 70%.
The corresponding values for `Nc1nnc(-c2ccccc2O)cc1N1CC2CCC(C1)N2c1ccnc(C#CCN2CCCC(C(F)(F)F)CC2)c1` (stereo not shown) [Compound 209, 2-[6-amino-5-[8-[2-[3-[4-(trifluoromethyl)azepan-1-yl]prop-1-ynyl]-4-pyridyl]-3,8-diazabicyclo[3.2.1]octan-3-yl]pyridazin-3-yl]phenol] are below 10 nM, “F (F indicates −71%-−120%)”, below 10 nM and 30 to 70%.
For `CC1(C)CC(O)C(O)CN(CC#Cc2cc(N3C4CCC3CN(c3cc(-c5ccccc5O)nnc3N)C4)ccn2)C1` (stereo not shown) [Compound 210, 1-[3-[4-[3-[3-amino-6-(2-hydroxyphenyl)pyridazin-4-yl]-3,8-diazabicyclo[3.2.1]octan-8-yl]-2-pyridyl]prop-2-ynyl]-6,6-dimethyl-azepane-3,4-diol], on BRM, the DC50 is above 100 nM and the “BRM IF Degradation Sinf (%)” value was “E (E indicates −30%-−70%)”. Also, the DC50 at BRG1 is above 100 nM.
For the molecule `CC1CN(CC#Cc2cc(N3C4CCC3CN(c3cc(-c5ccccc5O)nnc3N)C4)ccn2)CCC(F)(F)C1` (stereo not shown) [Compound 212, 2-[6-amino-5-[8-[2-[3-(5,5-difluoro-3-methyl-azepan-1-yl)prop-1-ynyl]-4-pyridyl]-3,8-diazabicyclo[3.2.1]octan-3-yl]pyridazin-3-yl]phenol], on BRM, the DC50 was below 10 nM and the “BRM IF Degradation Sinf (%)” value is “F (F indicates −71%-−120%)”. In addition, at BRG1, the DC50 was below 10 nM and the Dmax fell in the range of 71 to 120%.
For the molecule `Nc1nnc(-c2ccccc2O)cc1N1CC2CCC(C1)N2c1ccnc(C#CCN2CCCCC(CO)C2)c1` (stereo not shown) [Compound 214, 2-[6-amino-5-[8-[2-[3-[3-(hydroxymethyl)azepan-1-yl]prop-1-ynyl]-4-pyridyl]-3,8-diazabicyclo[3.2.1]octan-3-yl]pyridazin-3-yl]phenol], on BRM, the DC50 is below 10 nM and the “BRM IF Degradation Sinf (%)” value is listed as “F (F indicates −71%-−120%)”. Also, at BRG1, the DC50 is below 10 nM and the Dmax was 30 to 70%.
As for `Nc1nnc(-c2ccccc2O)cc1N1CC2CCC(C1)N2c1ccnc(C#CCN2CCCC(CO)CC2)c1` (stereo not shown) [Compound 215, 2-[6-amino-5-[8-[2-[3-[4-(hydroxymethyl)azepan-1-yl]prop-1-ynyl]-4-pyridyl]-3,8-diazabicyclo[3.2.1]octan-3-yl]pyridazin-3-yl]phenol], at BRM, the DC50 was below 10 nM and the “BRM IF Degradation Sinf (%)” value is reported as “F (F indicates −71%-−120%)”. Besides, at BRG1, the DC50 fell in the range of 10 to 100 nM and the Dmax lay in the range of 71 to 120%.
Consider `Nc1nnc(-c2ccccc2O)cc1N1CC2CCC(C1)N2c1ccnc(C#CCN2CCCCCC2CO)c1` (stereo not shown) [Compound 216, 2-[6-amino-5-[8-[2-[3-[2-(hydroxymethyl)azepan-1-yl]prop-1-ynyl]-4-pyridyl]-3,8-diazabicyclo[3.2.1]octan-3-yl]pyridazin-3-yl]phenol], for which, at BRM, the DC50 is below 10 nM and the “BRM IF Degradation Sinf (%)” value is “F (F indicates −71%-−120%)”. For the same molecule, on BRG1, the DC50 was below 10 nM and the Dmax was 71 to 120%.
`Nc1nnc(-c2ccccc2O)cc1N1CC2CCC(C1)N2c1ccnc(C#CCN2CC3CC(CO)CC32)c1` (stereo not shown) [Compound 217, 2-[6-amino-5-[8-[2-[3-[3-(hydroxymethyl)-6-azabicyclo[3.2.0]heptan-6-yl]prop-1-ynyl]-4-pyridyl]-3,8-diazabicyclo[3.2.1]octan-3-yl]pyridazin-3-yl]phenol]: at BRM, the DC50 was 10 to 100 nM and the “BRM IF Degradation Sinf (%)” value is “E (E indicates −30%-−70%)”. For the same molecule, on BRG1, the DC50 was 10 to 100 nM and the Dmax lay within 30 to 70%.
On to `Nc1nnc(-c2ccccc2O)cc1N1CC2CCC(C1)N2c1ccnc(C#CCN2CCC3CCC2CC3)c1` [Compound 218, 2-[6-amino-5-[8-[2-[3-(2-azabicyclo[3.2.2]nonan-2-yl)prop-1-ynyl]-4-pyridyl]-3,8-diazabicyclo[3.2.1]octan-3-yl]pyridazin-3-yl]henol], for which, at BRM, the DC50 was below 10 nM and the “BRM IF Degradation Sinf (%)” value is “F (F indicates −71%-−120%)”. Besides, at BRG1, the DC50 was below 10 nM and the Dmax was 30 to 70%.
In the case of `CC1CC(O)CCN(CC#Cc2cc(N3C4CCC3CN(c3cc(-c5ccccc5O)nnc3N)C4)ccn2)C1` (stereo not shown) [Compound 219, 1-[3-[4-[3-[3-amino-6-(2-hydroxyphenyl)pyridazin-4-yl]-3,8-diazabicyclo[3.2.1]octan-8-yl]-2-pyridyl]prop-2-ynyl]-6-methyl-azepan-4-ol], at BRM, the DC50 was below 10 nM and the “BRM IF Degradation Sinf (%)” value is “F (F indicates −71%-−120%)”. Also, on BRG1, the DC50 is below 10 nM and the Dmax was in the range of 71 to 120%.
`Nc1nnc(-c2ccccc2O)cc1N1CC2CCC(C1)N2c1ccnc(C#CCN2CCC3CCC2C3)c1` (stereo not shown) [Compound 221, 2-[6-amino-5-[8-[2-[3-(2-azabicyclo[3.2.1]octan-2-yl)prop-1-ynyl]-4-pyridyl]-3,8-diazabicyclo[3.2.1]octan-3-yl]pyridazin-3-yl]phenol]: on BRM, the DC50 is below 10 nM and the “BRM IF Degradation Sinf (%)” value is “E (E indicates −30%-−70%)”. Further, on BRG1, the DC50 is below 10 nM and the Dmax was in the range of 30 to 70%.
For `Nc1nnc(-c2ccccc2O)cc1N1CC2CCC(C1)N2c1ccnc(C#CCCN2CCCCCC2)c1` [Compound 222, 2-[6-amino-5-[8-[2-[4-(azepan-l-yl)but-1-ynyl]-4-pyridyl]-3,8-diazabicyclo[3.2.1]octan-3-yl]pyridazin-3-yl]phenol], on BRM, the DC50 was below 10 nM and the “BRM IF Degradation Sinf (%)” value is “F (F indicates −71%-−120%)”. At BRG1, the DC50 was below 10 nM and the Dmax fell in the range of 71 to 120%.
Regarding `Nc1nnc(-c2ccccc2O)cc1N1CC2CCC(C1)N2c1ccnc(C#CCN2CC(F)(F)C2)c1` [Compound 223, 2-[6-amino-5-[8-[2-[3-(3,3-difluoroazetidin-1-yl)prop-1-ynyl]-4-pyridyl]-3,8-diazabicyclo[3.2.1]octan-3-yl]pyridazin-3-yl]phenol], at BRM, the DC50 was in the range of 10 to 100 nM and the “BRM IF Degradation Sinf (%)” value is given as “E (E indicates −30%-−70%)”. At BRG1, the DC50 was below 10 nM and the Dmax was 30 to 70%.
In the case of `CCOC1CN(CC#Cc2cc(N3C4CCC3CN(c3cc(-c5ccccc5O)nnc3N)C4)ccn2)C1` [Compound 224, 2-[6-amino-5-[8-[2-[3-(3-ethoxyazetidin-1-yl)prop-1-ynyl]-4-pyridyl]-3,8-diazabicyclo[3.2.1]octan-3-yl]pyridazin-3-yl]phenol], on BRM, the DC50 is below 10 nM and the “BRM IF Degradation Sinf (%)” value is “E (E indicates −30%-−70%)”. At BRG1, the DC50 is below 10 nM and the Dmax was in the range of 30 to 70%.
Turning to `COC(=O)C1CN(CC#Cc2cc(N3C4CCC3CN(c3cc(-c5ccccc5O)nnc3N)C4)ccn2)C1` [Compound 225], on BRM, the DC50 fell in the range of 10 to 100 nM and the “BRM IF Degradation Sinf (%)” value was “E (E indicates −30%-−70%)”. Besides, on BRG1, the DC50 was below 10 nM and the Dmax fell in the range of 0 to 30%.
